In patent publication US5679671A, “Amino acid derivative” (Eisai Co., Ltd., priority 1993, dated 1997):

Experiments:
Format in all cases: biochemical
[1] = target: T1, ACE (Rattus norvegicus, UniProt P47820); assay: ACE inhibition activity using rat lung (Experiment C-2); conditions: Table C-1; rat lung membrane fraction, borate buffer pH 8.3
T1 construct: membrane fraction prepared from rat lung; from tissue; host or cells: rat lung, membrane fraction (method of Wu-Wong et al.)
T1 sequence (P47820 36-1313): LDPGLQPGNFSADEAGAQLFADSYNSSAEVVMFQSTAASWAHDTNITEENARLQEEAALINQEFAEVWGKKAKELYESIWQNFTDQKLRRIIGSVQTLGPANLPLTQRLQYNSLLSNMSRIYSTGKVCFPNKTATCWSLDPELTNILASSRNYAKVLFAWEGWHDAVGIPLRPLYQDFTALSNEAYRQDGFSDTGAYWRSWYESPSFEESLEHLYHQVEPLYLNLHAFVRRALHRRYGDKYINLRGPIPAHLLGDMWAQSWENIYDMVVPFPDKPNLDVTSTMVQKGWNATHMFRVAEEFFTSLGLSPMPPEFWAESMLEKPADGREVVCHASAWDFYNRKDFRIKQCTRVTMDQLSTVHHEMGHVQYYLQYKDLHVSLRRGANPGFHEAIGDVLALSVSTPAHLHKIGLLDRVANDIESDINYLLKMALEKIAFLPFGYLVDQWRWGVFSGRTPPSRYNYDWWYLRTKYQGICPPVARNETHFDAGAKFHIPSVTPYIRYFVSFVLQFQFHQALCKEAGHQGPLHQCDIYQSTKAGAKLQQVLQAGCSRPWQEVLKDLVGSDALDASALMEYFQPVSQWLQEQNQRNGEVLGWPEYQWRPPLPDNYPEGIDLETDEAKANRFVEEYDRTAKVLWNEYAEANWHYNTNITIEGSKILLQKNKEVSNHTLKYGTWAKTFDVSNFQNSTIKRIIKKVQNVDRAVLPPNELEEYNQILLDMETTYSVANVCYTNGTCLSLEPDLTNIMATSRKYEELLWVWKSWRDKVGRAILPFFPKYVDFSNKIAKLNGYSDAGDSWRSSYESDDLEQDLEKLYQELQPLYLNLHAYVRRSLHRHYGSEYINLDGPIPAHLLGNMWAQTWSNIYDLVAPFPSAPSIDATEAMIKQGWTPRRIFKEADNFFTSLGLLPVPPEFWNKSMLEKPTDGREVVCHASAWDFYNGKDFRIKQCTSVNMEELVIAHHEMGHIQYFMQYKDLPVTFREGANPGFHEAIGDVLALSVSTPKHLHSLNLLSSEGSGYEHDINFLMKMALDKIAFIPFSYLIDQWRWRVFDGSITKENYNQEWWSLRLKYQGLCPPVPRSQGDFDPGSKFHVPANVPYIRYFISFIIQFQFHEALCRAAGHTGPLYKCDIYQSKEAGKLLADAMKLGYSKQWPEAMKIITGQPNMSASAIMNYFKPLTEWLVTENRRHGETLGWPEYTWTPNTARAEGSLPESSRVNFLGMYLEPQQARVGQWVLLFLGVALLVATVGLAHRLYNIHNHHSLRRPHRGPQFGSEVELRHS
Protocol: The ACE inhibition activity was determined by using a membrane fraction prepared from rat lung in accordance with the method of Wu-Wong et al. (Characterization of Endthelin Converting Enzyme in Rat Lung., Junshyum R. Wu-Wong, Gerald P. Budzik, Edward M. Devine and Terry J. Opgenorth, Biochem. Biophys. Res. Commun., 1990, 171, 1291-1296.).
The ACE activity was determined with the use of a modification (modified to a borate buffer, pH 8.3) of the method of Cushman and Cheung (Spectrophotometric Assay and Properties of the Angiotensin-Converting Enzyme of Rabbit Lung., Cushman D. W. and Cheung H. S., 1971, 20, 1637-1648.).
(§1) In the presence of ACE, the hippurate liberated from hippuryl-histidyl-leucine (Hippuryl-His-Leu (PeptideInstitute Inc., Japan)) was extracted with ethyl acetate and then the absorbance was measured at a wavelength of 228 nm.
With respect to the ACE inhibition activity, the test compound was added to the reaction system as described above in such a manner as to give the final concentrations of 1, 3, 10, 30, 100, 300 and 1000 nM, an inhibition curve was prepared, and then the concentration at which 50% inhibition was achieved was taken as IC50. As a comparative compound, [4S-[4α,7α(R*),12bβ]]-7-[(1-oxo-2-(S)-thio-3-phenyl-propyl)amino]-1,2,3,4,6,7,8,12b-octahydro-6-oxopyrido-[2,1-a][2]benzazepine-4-carboxylic acid was used.

[2] = target: T1, ACE; assay: ACE inhibition activity (Experiment F-1); conditions: rat lung membrane fraction, pH 8.3
Protocol: (§2) As a source of the enzyme ACE, a membrane fraction prepared from rat lung in accordance with the method of Wu-Wong et al. (Characterization of Endthelin Converting Enzyme in Rat Lung., Jinshyum R. Wu-Wong, Gerald P. Budzik, Edward M, Devine and Terry J. Opgenorth, Biochem. Biophys. Res. Commun., 1990, 171, 1291-1296.) was used. The ACE activity was determined with the use of a modification (modified to a borate buffer pH 8.3) of the method of Cushman and Cheung (Spectrophotometric Assay and Properties of the Angiotensin-Converting Enzyme of Rabbit Lung., Cushman D. W. and Cheung H. S., 1971, 20, 1637-1648.). Now the procedure will be briefly described.
In the presence of ACE, the hippurate liberated from hippuryl-histidyl-leucine (Hippuryl-His-Leu (Peptide Institute Inc., Japan)) was extracted with ethyl acetate and then the absorbance was measured at a wavelength of 228 nm.
(§3) With respect to the NEP inhibition activity and the ACE inhibition activity, the inhibitor was added to the assay systems of both enzyme activities as described above in such a manner as to give the final concentrations of 1, 3, 10, 30, 100, 300 and 1000 inhibition curves were prepared, and then the concentration at which 50% inhibition was achieved was taken as IC50.

[3] = target: T1, ACE; assay: ACE inhibition activity (Experiment E-1); conditions: rat lung membrane fraction, pH 8.3
Protocol: as §2, with “Gerald,” for “Gerald”, “M.” for “M,”
as §1
as §3, with “To determine” for “With respect to”, “[…]” for “300”, “1000 nM and” for “1000”, “prepared. Then” for “prepared, and then”

| SMILES | IC50 [1] | IC50 [2] | IC50 [3] |
| --- | --- | --- | --- |
| CC[C@H](C)[C@H](S)C(=O)N[C@H]1CCC[C@H]2SC[C@@H](C(=O)O)N2C1=O [Example C-8, [3R-[3α,6α,(S*),9aβ]]-6-[[(2S,3S)-3-methyl-1-oxo-2-thiopentyl]amino]-octahydro-5-oxothiazol[3,2-a]-azepine-3-carboxylic acid] | 5.3 nM | 5.2 nM | – |
| CC(C)[C@H](S)C(=O)N[C@H]1Cc2ccc(-c3ccccc3)cc2[C@H]2CCC[C@@H](C(=O)O)N2C1=O [Example E-10, [4S-[4α,7α(R*),12bβ]]-7-[(S)-2-Mercapto-3-methylbutyrylamino]-6-oxo-11-phenyl-1,2,3,4,6,7,8,12b-octahydropyrido[2,1-a][2]benzazepine-4-carboxylic acid] | – | – | 10 nM |
| O=C(N[C@H]1CCC[C@H]2SC[C@@H](C(=O)O)N2C1=O)[C@@H](S)Cc1ccccc1 [Example F-17, [3R-[3α,6α(S*),9aβ]]-6-[[(S)-1-Oxo-2-thio-3-phenylpropyl]amino]-octahydro-5-oxothiazol[3,2-a]-azepine-3-carboxylic acid] | – | 13.4 nM | – |

Further compounds by falling IC50 [1], results first:

| IC50 [1] | IC50 [2] | IC50 [3] | SMILES |
| --- | --- | --- | --- |
| 13 nM | – | – | CC[C@H](C)[C@H](S)C(=O)NC1CCc2ccccc2N(CC(=O)O)C1=O (stereo partly drawn) [Example A-9, 1-Carboxymethyl-3-[(2S,3S)-2-mercapto-3-methylvarelylamino]-1H-[1]benzazepin-2-one] |
| 12.3 nM | – | 11 nM | CC[C@H](C)[C@H](S)C(=O)N[C@H]1Cc2ccc(-c3ccccc3)cc2[C@H]2CCC[C@@H](C(=O)O)N2C1=O [Example C-14, [4S-[4α,7α(R*),12bβ]]-7-[[(2S,3S)-3-Methyl-1-oxo-2-thiopentyl]amino]-6-oxo-11-phenyl-1,2,3,4,6,7,8,12b-octahydropyrido[2,1-a][2]benzazepine-4-carboxylic acid] |
| 11 nM | – | – | CC[C@H](C)[C@H](S)C(=O)N[C@H]1CCc2ccccc2N(CC(=O)O)C1=O [Example A-11, (S)-3-[(2S,3S)-2-Mercapto-3-methylvarelylamino]-1-carboxymethyl-2,3,4,5-tetrahydro-1H-[1]benzazepin-2-one] |
| 9 nM | 10.6 nM | 9 nM | O=C(N[C@H]1Cc2ccccc2[C@H]2CCC[C@@H](C(=O)O)N2C1=O)[C@@H](S)Cc1ccccc1 [Comp. cpd. E-1, [4S-[4α,7α(R*),12bβ]]-7-[(1-oxo-2-(S)-thio-3-phenyl-propyl)amino]-1,2,3,4,6,7,8,12b-octahydro-6-oxopyrido-[2,1-a][2]benzazepine-4-carboxylic acid, reference compound] |
